{
  "source": "patent US8333959B2",
  "about": "“Ex-vivo application of solid microparticulate therapeutic agents” (Baxter International Inc., priority 2004, dated 2012)",
  "origin": "cited, not measured here",
  "tested_on": "HIV-infected macrophages",
  "data": [
    {"molecule": "CC(C)(C)NC(=O)[C@@H]1C[C@@H]2CCCC[C@@H]2CN1C[C@@H](O)[C@H](Cc1ccccc1)NC(=O)[C@H](CC(N)=O)NC(=O)c1ccc2ccccc2n1", "note": "[saquinavir]", "values": [
      {"measurement": "antiviral activity in HIV-infected macrophages", "setting": "HIV-infected macrophages, in vitro, solution vs nanoparticulate formulation", "result": "little antiviral activity"},
      {"measurement": "antiviral activity in chronically HIV-infected macrophages", "setting": "concentration of 100 nM, chronically HIV-infected macrophages", "result": "completely inactive"}
    ]}
  ]
}
